Patent US20240270762A1, “PENICILLIN-BINDING PROTEIN INHIBITORS” (priority 2021, published 2024)
Values after ≈ are worked out from the molar mass of the structure shown.

Assays:
[1] = target: T1, PBP1a from Acinetobacter baumannii (ATCC 19606) (Acinetobacter baumannii, UniProt A0ABX6CK30); experiment: Bocillin-FL fluorescence polarization competition binding, A. baumannii PBP1a; conditions: fluorescence polarization competition binding assay using Bocillin-FL; read-out: A. baumannii PBP1a Potency
T1 sequence (A0ABX6CK30 1-851): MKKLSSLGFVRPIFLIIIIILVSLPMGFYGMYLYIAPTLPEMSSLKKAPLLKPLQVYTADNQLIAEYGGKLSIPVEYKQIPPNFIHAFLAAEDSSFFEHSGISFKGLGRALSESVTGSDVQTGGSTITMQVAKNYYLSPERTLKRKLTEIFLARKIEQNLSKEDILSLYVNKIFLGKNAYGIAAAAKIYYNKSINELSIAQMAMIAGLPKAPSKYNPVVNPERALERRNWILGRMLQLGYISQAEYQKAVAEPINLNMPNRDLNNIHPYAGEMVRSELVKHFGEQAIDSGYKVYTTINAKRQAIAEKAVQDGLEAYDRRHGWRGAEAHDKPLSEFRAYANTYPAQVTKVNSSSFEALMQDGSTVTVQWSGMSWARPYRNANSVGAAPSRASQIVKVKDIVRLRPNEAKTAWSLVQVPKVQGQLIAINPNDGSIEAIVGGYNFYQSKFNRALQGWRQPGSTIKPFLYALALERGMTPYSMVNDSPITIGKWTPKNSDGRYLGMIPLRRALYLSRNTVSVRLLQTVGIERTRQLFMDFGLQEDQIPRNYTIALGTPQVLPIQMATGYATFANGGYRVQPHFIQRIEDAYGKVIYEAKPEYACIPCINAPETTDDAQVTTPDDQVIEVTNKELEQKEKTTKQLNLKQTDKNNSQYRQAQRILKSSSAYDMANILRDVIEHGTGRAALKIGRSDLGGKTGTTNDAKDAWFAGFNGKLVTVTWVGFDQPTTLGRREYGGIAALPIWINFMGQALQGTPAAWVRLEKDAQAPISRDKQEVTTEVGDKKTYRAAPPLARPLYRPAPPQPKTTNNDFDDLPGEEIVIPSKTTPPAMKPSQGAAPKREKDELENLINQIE
In short: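 Purified PBP was preincubated with inhibitor (E. coli PBP3 1.5 μM, 30 min; P. aeruginosa PBP3 0.75 μM, A. baumannii PBP3 0.2 μM and PBP1a 1 μM, 15 min), then Bocillin-FL (0.1 μM; 0.05 μM for PBP1a) added and FP read up to 60 min. EC50 = 50% loss of bound probe.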

N. gonorrhoeae WHO L = experiment: Liquid broth MIC in Fastidious broth; conditions: Neisseria gonorrhoeae, read-out: Minimum Inhibitory Concentration, WHO L
N. gonorrhoeae WHO Q = experiment: Liquid broth MIC in Fastidious broth; conditions: Neisseria gonorrhoeae, read-out: Minimum Inhibitory Concentration, WHO Q
N. gonorrhoeae WHO G = experiment: Liquid broth MIC in Fastidious broth; conditions: Neisseria gonorrhoeae, read-out: Minimum Inhibitory Concentration, WHO G
N. gonorrhoeae MS11 = experiment: Liquid broth MIC in Fastidious broth; conditions: Neisseria gonorrhoeae, MS11, read-out: Minimum Inhibitory Concentration, MS11
N. gonorrhoeae WHO X = experiment: Liquid broth MIC in Fastidious broth; conditions: Neisseria gonorrhoeae, read-out: Minimum Inhibitory Concentration, WHO X
[2] = system: N. gonorrhoeae ATCC 49226; experiment: Liquid broth MIC in Fastidious broth; conditions: Neisseria gonorrhoeae, ATCC49226, read-out: Minimum Inhibitory Concentration, ATCC 49226
N. gonorrhoeae WHO K = experiment: Liquid broth MIC in Fastidious broth; conditions: Neisseria gonorrhoeae, read-out: Minimum Inhibitory Concentration, WHO K

Compound	IC50 [1] [µM]	MIC (N. gonorrhoeae WHO L) [µg/mL]	MIC (N. gonorrhoeae WHO Q) [µg/mL]	MIC (N. gonorrhoeae WHO G) [µg/mL]	MIC (N. gonorrhoeae MS11) [µg/mL]	MIC (N. gonorrhoeae WHO X) [µg/mL]	MIC [2] [µg/mL]	MIC (N. gonorrhoeae WHO K) [µg/mL]
O=C(NCCCN1CCN(C(=O)NC(C(=O)N[C@H]2Cc3ccc(F)c(C(=O)O)c3OB2O)c2cc(F)c(O)c(O)c2Cl)C1=O)c1ccc(O)cc1 (stereo partly drawn) [Example 280, (3R)-3-(2-(2-chloro-5-fluoro-3,4-dihydroxyphenyl)-2-(3-(3-(4-hydroxybenzamido)propyl)-2-oxoimidazolidine-1-carboxamido)acetamido)-7-fluoro-2-hydroxy-3,4-dihydro-2H-benzo[e][1,2]oxaborinine-8-carboxylic acid]	> 250	> 64	> 64	16 to 32 (≈ 21.9 to 43.7 µM)	16 to 32 (≈ 21.9 to 43.7 µM)	> 64	16 to 32 (≈ 21.9 to 43.7 µM)	> 64
O=C(NCCCN1CCN(C(=O)N[C@@H](C(=O)N[C@H]2Cc3ccc(F)c(C(=O)O)c3OB2O)c2cc(F)c(O)c(O)c2Cl)C(=O)C1=O)c1ccncc1 [Example 294, (R)-3-((R)-2-(2-chloro-5-fluoro-3,4-dihydroxyphenyl)-2-(4-(3-(isonicotinamido)propyl)-2,3-dioxopiperazine-1-carboxamido)acetamido)-7-fluoro-2-hydroxy-3,4-dihydro-2H-benzo[e][1,2]oxaborinine-8-carboxylic acid]	> 250	> 64	> 64	16 to 32 (≈ 21.5 to 43 µM)	16 to 32 (≈ 21.5 to 43 µM)	> 64	16 to 32 (≈ 21.5 to 43 µM)	> 64
O=C(NCCCN1CCN(C(=O)NC(C(=O)N[C@H]2Cc3ccc(F)c(C(=O)O)c3OB2O)c2cc(F)c(O)c(O)c2Cl)C1=O)Nc1ccncc1 (stereo partly drawn) [Example 285, (3R)-3-(2-(2-chloro-5-fluoro-3,4-dihydroxyphenyl)-2-(2-oxo-3-(3-(3-(pyridin-4-yl)ureido)propyl)imidazolidine-1-carboxamido)acetamido)-7-fluoro-2-hydroxy-3,4-dihydro-2H-benzo[e][1,2]oxaborinine-8-carboxylic acid]	> 250	> 64	> 64	> 64	> 64	> 64	> 64	> 64
O=C(NCCS(=O)(=O)N1CCN(C(=O)N[C@@H](C(=O)N[C@H]2Cc3ccc(F)c(C(=O)O)c3OB2O)c2cc(F)c(O)c(O)c2Cl)C1=O)Nc1ccncc1 [Example 290, (R)-3-((R)-2-(2-chloro-5-fluoro-3,4-dihydroxyphenyl)-2-(2-oxo-3-((2-(3-(pyridin-4-yl)ureido)ethyl)sulfonyl)imidazolidine-1-carboxamido)acetamido)-7-fluoro-2-hydroxy-3,4-dihydro-2H-benzo[e][1,2]oxaborinine-8-carboxylic acid]	> 250	> 64	16 to 32 (≈ 20.5 to 40.9 µM)	16 to 32 (≈ 20.5 to 40.9 µM)	16 to 32 (≈ 20.5 to 40.9 µM)	> 64	16 to 32 (≈ 20.5 to 40.9 µM)	> 64
O=C(NCCCN1CCN(C(=O)N[C@@H](C(=O)N[C@H]2Cc3ccc(F)c(C(=O)O)c3OB2O)c2cc(F)c(O)c(O)c2Cl)C(=O)C1=O)c1ccnc(F)c1F [Example 300, (R)-3-((R)-2-(2-chloro-5-fluoro-3,4-dihydroxyphenyl)-2-(4-(3-(2,3-difluoroisonicotinamido)propyl)-2,3-dioxopiperazine-1-carboxamido)acetamido)-7-fluoro-2-hydroxy-3,4-dihydro-2H-benzo[e][1,2]oxaborinine-8-carboxylic acid]	> 250	> 64	> 64	16 to 32 (≈ 20.5 to 41 µM)	16 to 32 (≈ 20.5 to 41 µM)	> 64	16 to 32 (≈ 20.5 to 41 µM)	> 64
